Test [1] addresses Histone-lysine N-methyltransferase EZH2 (Mus musculus) (UniProt Q61188). Put plainly: Inhibition of EZH2 in mouse primary cranial mesenchyme ectoderm fibroblast assessed as reduction in H3K27me3 protein level at 500 to 2000 nM by Western blotting analysis. Conditions: dose 500-2000 nM.
The target is the same in test [2]. Put plainly: Inhibition of EZH2 in mouse primary cranial mesenchyme ectoderm fibroblast assessed as increase in Sox9 mRNA level by qPCR analysis. For orientation: Quantitative PCR measures a nucleic acid by following its amplification.
For test [3], the target named is Histone-lysine N-methyltransferase EZH2 (Homo sapiens, UniProt Q15910). Put plainly: Inhibition of EZH2 (unknown origin).
Chain of Histone-lysine N-methyltransferase EZH2 (Q15910 whole entry): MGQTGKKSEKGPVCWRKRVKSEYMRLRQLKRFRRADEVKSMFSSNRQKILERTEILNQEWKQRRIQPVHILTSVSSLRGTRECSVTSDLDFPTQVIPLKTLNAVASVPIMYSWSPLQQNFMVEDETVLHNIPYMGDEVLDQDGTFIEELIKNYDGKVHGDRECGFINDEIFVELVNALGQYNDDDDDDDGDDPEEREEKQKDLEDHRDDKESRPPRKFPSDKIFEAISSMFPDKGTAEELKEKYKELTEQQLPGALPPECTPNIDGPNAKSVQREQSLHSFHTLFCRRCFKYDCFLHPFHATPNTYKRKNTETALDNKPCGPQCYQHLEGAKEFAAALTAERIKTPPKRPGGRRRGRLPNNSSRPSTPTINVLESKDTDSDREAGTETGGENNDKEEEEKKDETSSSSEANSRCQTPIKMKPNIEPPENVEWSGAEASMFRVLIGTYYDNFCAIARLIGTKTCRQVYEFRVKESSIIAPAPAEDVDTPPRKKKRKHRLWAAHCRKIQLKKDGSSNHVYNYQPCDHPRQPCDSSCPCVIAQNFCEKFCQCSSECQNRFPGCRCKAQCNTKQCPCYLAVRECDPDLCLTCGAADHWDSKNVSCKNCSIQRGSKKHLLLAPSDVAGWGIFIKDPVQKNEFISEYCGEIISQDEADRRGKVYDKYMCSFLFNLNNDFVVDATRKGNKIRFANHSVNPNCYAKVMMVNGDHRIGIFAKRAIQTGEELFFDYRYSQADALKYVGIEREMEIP
For test [4], the target named is Histone-lysine N-methyltransferase EZH2 (Mus musculus) (UniProt Q61188). Put plainly: Inhibition of EZH2 in mouse primary cranial mesenchyme ectoderm fibroblast assessed as reduction in H3K27me3 protein level at 150 to 2000 nM by Western blotting analysis. Conditions: dose 150-2000 nM.
Chain of Histone-lysine N-methyltransferase EZH2 (Mus musculus) (Q61188 whole entry): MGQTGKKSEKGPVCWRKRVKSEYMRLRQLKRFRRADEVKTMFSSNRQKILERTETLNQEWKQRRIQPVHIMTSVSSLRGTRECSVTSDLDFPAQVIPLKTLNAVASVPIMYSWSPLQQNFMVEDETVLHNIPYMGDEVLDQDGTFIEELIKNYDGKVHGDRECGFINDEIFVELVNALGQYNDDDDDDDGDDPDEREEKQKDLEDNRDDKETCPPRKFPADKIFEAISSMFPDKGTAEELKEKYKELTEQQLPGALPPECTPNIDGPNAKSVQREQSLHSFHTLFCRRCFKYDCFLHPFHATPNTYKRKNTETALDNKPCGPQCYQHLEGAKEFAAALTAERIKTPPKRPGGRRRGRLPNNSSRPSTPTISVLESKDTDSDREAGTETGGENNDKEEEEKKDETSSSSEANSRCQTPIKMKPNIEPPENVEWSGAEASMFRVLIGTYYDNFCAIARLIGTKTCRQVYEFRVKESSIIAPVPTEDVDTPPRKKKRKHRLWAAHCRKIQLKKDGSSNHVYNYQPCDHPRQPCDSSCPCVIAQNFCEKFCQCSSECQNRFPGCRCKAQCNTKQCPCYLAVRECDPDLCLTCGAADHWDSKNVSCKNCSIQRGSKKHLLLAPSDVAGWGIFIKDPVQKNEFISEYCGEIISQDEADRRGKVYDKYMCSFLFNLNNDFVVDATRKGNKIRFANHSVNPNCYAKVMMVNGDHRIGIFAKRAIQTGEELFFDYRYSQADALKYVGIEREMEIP
For test [5], the target named is T1, Histone-lysine N-methyltransferase EZH1 (Homo sapiens, UniProt Q92800).
T1 sequence (Q92800 whole entry): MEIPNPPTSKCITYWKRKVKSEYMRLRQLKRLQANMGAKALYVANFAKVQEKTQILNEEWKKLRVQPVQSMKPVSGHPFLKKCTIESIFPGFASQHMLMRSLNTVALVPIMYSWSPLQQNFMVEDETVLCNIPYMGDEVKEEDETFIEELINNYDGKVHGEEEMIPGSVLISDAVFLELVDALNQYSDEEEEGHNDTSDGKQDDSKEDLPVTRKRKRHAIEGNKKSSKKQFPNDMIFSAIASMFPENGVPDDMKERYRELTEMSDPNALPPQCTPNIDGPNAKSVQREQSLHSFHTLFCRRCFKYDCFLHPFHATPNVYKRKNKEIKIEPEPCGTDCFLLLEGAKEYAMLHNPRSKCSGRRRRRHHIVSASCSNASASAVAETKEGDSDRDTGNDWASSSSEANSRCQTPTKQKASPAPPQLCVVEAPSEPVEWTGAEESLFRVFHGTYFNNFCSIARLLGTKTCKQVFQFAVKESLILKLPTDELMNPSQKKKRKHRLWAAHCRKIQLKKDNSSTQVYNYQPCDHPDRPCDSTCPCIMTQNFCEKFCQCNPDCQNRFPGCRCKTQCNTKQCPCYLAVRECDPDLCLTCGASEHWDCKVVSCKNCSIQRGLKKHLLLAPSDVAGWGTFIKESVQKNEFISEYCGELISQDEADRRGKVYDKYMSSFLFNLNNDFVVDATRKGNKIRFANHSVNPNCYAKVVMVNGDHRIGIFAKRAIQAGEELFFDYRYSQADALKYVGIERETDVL
The experiment in a line: Inhibition of EZH1 (unknown origin).

In ChEMBL document CHEMBL5712895, “PRC2 Is Dispensable in Vivo for β-Catenin-Mediated Repression of Chondrogenesis in the Mouse Embryonic Cranial Mesenchyme” (G3 (Bethesda), 2018) one finds inhibition and IC50 data, which are given here for two compounds.

Calls of active or inactive are those of the source. The rule behind the calls is not given here. Some results are limits rather than exact numbers.

Broadly, the IC50 is the concentration needed to halve the response being measured. Read a low IC50 as inhibition by little substance. `CCCc1cc(C)[nH]c(=O)c1CNC(=O)c1cc(-c2ccc(N3CCN(C(C)C)CC3)nc2)cc2c1cnn2C(C)C`: the inhibition result in test [1] is “Active”. For the same compound, the inhibition entry in test [2] is “inactive”. The compound further showed a half-maximal inhibitory concentration (IC50) in test [3] of under 10 nM.

On to `CC[C@H](C)n1cc(C)c2c(C(=O)NCc3c(C)cc(C)[nH]c3=O)cc(-c3ccc(N4CCNCC4)nc3)cc21` [GSK2816126], for which the inhibition result in test [4] was “Active”. In addition, the IC50 in test [5] is 75 nM. In addition, in test [2], the inhibition result was “inactive”.
